Reference: patent US8247595B2, “Organic sulfur compound and its use for controlling harmful arthropod” (Sumitomo Chemical Company, Limited, priority 2007, dated 2012)

Key:
Format in all cases: in vivo
[1] = tested on: Haemaphysalis longicornis; assay: Test Example 5: treated filter paper pouch, death rate of ticks; conditions: 48 h, filter paper treated with 100 mg/m^2, non-blood-sucking nymphal ticks, 10 ticks/group, after 2 days, read-out: death rate of the tick
Protocol: Five milligrams of any one of the present compounds (19), (23), (24), (27), (28), (29), (32), (33), (35), (38) and (39) was dissolved in 10 mL of acetone. One milliliter of the acetone solution was uniformly applied on one side of a filter paper (TOYO No. 2; 5×10 cm), so that the filter paper was treated with 100 mg/m^2 of the present compound. After drying, the filter paper was folded in two and its edges were clipped to make a pouch. Non-blood-sucking nymphal ticks (Haemaphysalis longicornis, 10 ticks/group) were put into the pouch, and the pouch was sealed with clips. After 2 days, the number of surviving ticks was examined and the death rate was calculated.
As a result, in treatments with the present compounds (19), (23), (24), (27), (28), (29), (32), (33), (35), (38) and (39), the death rate of the tick was 90%.

Culex pipiens pallens = assay: Test Example 4: larvae released into treated water, death rate of Culex pipiens pallens; conditions: 24 h, active ingredient concentration 3.5 ppm in water, 20 last-instar larvae, after one day
Protocol: (§1) Preparations of the present compounds (1), (2), (3), (4), (5), (6), (7), (13), (14), (15), (16), (18), (22), (23), (24), (25), (26), (27), (28), (29), (30), (31), (32), (33), (34), (35), (36), (38) and (39) obtained according to Formulation Example 44 were diluted so that the active ingredient concentration was 500 ppm to obtain test solutions.
To 100 mL of ion-exchanged water, 0.7 ml of the test solution was added (active ingredient concentration: 3.5 ppm). Into the solution, 20 last-instar larvae of Culex pipiens pallens were released. After one day, the number of surviving Culex pipiens pallens was examined and the death rate of the pest was calculated.
As a result, in treatments with the present compounds (1), (2), (3), (4), (5), (6), (7), (13), (14), (15), (16), (18), (22), (23), (24), (25), (26), (27), (28), (29), (30), (31), (32), (33), (34), (35), (36), (38) and (39), the death rate of the pest was 90% or more.

Musca domestica = assay: Test Example 2: treated filter paper with sucrose bait, death rate of Musca domestica; conditions: 500 ppm test solution, 0.7 ml on filter paper, 10 female imagoes, after 24 hours
Protocol: as §1, with “(7), (8), (9), (10),” for “(7),”, “(13),” for “(13), (14), (15), (16),”, “(18),” for “(18), (22),”, “(35),” for “(35), (36),”
(§2) A filter paper having a diameter of 5.5 cm was spread on the bottom of a polyethylene cup having a diameter of 5.5 cm and 0.7 ml of the test solution was added dropwise onto the filter paper. As a bait 30 mg of sucrose was uniformly placed on the filter paper. Into the polyethylene cup, 10 female imagoes of Musca domestica were released and the cup was sealed with a lid. After 24 hours, the number of surviving Musca domestica was examined and the death rate of the pest was calculated.
As a result, in treatments with the present compounds (1), (2), (3), (4), (5), (6), (7), (8), (9), (10), (13), (18), (23), (24), (25), (26), (27), (28), (29), (30), (31), (32), (33), (34), (35), (38) and (39), the death rate of the pest was 70% or more.

Blattalla germanica = assay: Test Example 3: treated filter paper with sucrose bait, death rate of Blattalla germanica; conditions: 500 ppm test solution, 0.7 ml on filter paper, 2 male imagoes, after 6 days; for pest or weed control at 500 ppm: 144 h
Protocol: as §1, with “compounds” for “compounds (1), (2),”, “(7), (9), (10),” for “(7),”, “(13),” for “(13), (14), (15), (16), (18), (22),”, “(35),” for “(35), (36),”
as §2, with “2 male” for “10 female”, “Blattalla germanica” for “Musca domestica”, “6 days,” for “24 hours,”
As a result, in treatments with the present compounds (3), (4), (5), (6), (7), (9), (10), (13), (23), (24), (25), (26), (27), (28), (29), (30), (31), (32), (33), (34), (35), (38) and (39), the death rate of the pest was 100%.

Compound	pest or weed control at 100 mg/m2 [1] [%]	pest or weed control at 3.5 ppm (Culex pipiens pallens) [%]	pest or weed control at 500 ppm (Musca domestica) [%]	pest or weed control at 500 ppm (Blattalla germanica) [%]	death rate of the pest (Blattalla germanica) [%]
C/C(=C\CC(C#N)S(=O)(=O)CCC(F)(F)F)C(F)(F)F (centres unmarked) [present compound (35), 6,6,6-trifluoro-5-methyl-2-(3,3,3-trifluoropropylsulfonyl)-4-hexenenitrile]	90	≥ 90	≥ 70	100	–
C#CCCCCCCC(C#N)S(=O)(=O)CCC(F)(F)F (centres unmarked) [present compound (25), 2-(3,3,3-trifluoropropylsulfonyl)-9-decynenitrile]	–	≥ 90	≥ 70	100	–
C#CCCCCC(Cl)(C(N)=O)S(=O)(=O)CCC(F)(F)F (centres unmarked) [present compound (5), 2-chloro-2-(3,3,3-trifluoropropylsulfonyl)-7-octynamide]	–	≥ 90	≥ 70	100	–
C#CCCCCC(Cl)(C(=O)OC)S(=O)(=O)CCC(F)(F)F (centres unmarked) [present compound (4), methyl 2-chloro-2-(3,3,3-trifluoropropylsulfonyl)-7-octyonate]	–	–	–	–	100
COC(=O)C(Cl)(CC=CC(F)(F)F)S(=O)(=O)CCC(F)(F)F (centres unmarked) [present compound (18), methyl 2-chloro-6,6,6-trifluoro-2-(3,3,3-trifluoropropylsulfonyl)-4-hexenoate]	–	≥ 90	≥ 70	–	–
C#CCC(CC)CCC(Cl)(C(N)=O)S(=O)(=O)CCC(F)(F)F (centres unmarked) [present compound (32), 2-chloro-5-ethyl-2-(3,3,3-trifluoropropylsulfonyl)-7-octynamide]	90	≥ 90	≥ 70	100	–
C#CCCC(C(=O)OC)S(=O)(=O)CCC(F)(F)F (centres unmarked) [present compound (8), methyl 2-(3,3,3-trifluoropropylsulfonyl)-5-hexynoate]	–	–	≥ 70	–	–
C#CCC(CC)CCC(Cl)(C(=O)OC)S(=O)(=O)CCC(F)(F)F (centres unmarked) [present compound (31), methyl 2-chloro-5-ethyl-2-(3,3,3-trifluoropropylsulfonyl)-7-octynoate]	–	≥ 90	≥ 70	100	–
C#CCCCCCC(F)(C(N)=O)S(=O)(=O)CCC(F)(F)F (centres unmarked) [present compound (16), 2-fluoro-2-(3,3,3-trifluoropropylsulfonyl)-8-nonynamide]	–	≥ 90	–	–	–
C#CCCCC(F)(C(N)=O)S(=O)(=O)CCC(F)(F)F (centres unmarked) [present compound (13), 2-fluoro-2-(3,3,3-trifluoropropylsulfonyl)-6-heptynamide]	–	≥ 90	≥ 70	100	–
CC(C#N)(C/C=C/C(F)(F)F)S(=O)(=O)CCC(F)(F)F (centres unmarked) [present compound (34), 6,6,6-trifluoro-2-methyl-2-(3,3,3-trifluoropropylsulfonyl)-4-hexenenitrile]	–	≥ 90	≥ 70	100	–
C#CCCCCC(C(=O)OC)S(=O)(=O)CCC(F)(F)F (centres unmarked) [present compound (1), methyl 2-(3,3,3-trifluoropropylsulfonyl)-7-octynoate]	–	≥ 90	≥ 70	–	–
C#CCCCCC(F)(C(N)=O)S(=O)(=O)CCC(F)(F)F (centres unmarked) [present compound (3), 2-fluoro-2-(3,3,3-trifluoropropylsulfonyl)-7-octynamide]	–	≥ 90	≥ 70	100	–
C#CCCCCC(Cl)(C#N)S(=O)(=O)CCC(F)(F)F (centres unmarked) [present compound (26), 2-chloro-2-(3,3,3-trifluoropropylsulfonyl)-7-octynenitrile]	–	≥ 90	≥ 70	100	–
C#CCCCCC(F)(C(=O)OC)S(=O)(=O)CCC(F)(F)F (centres unmarked) [present compound (2), methyl 2-fluoro-2-(3,3,3-trifluoropropylsulfonyl)-7-octynoate]	–	≥ 90	≥ 70	–	–
N#CC(CC=CC(F)(F)F)S(=O)(=O)CCC(F)(F)F (centres unmarked) [present compound (19), 6,6,6-trifluoro-2-(3,3,3-trifluoropropylsulfonyl)-4-hexenenitrile]	90	–	–	–	–
C#CCCCCC(C)(C(N)=O)S(=O)(=O)CCC(F)(F)F (centres unmarked) [present compound (7), 2-methyl-2-(3,3,3-trifluoropropylsulfonyl)-7-octynamide]	–	≥ 90	≥ 70	100	–
C#CCC(CC)CCC(C(=O)OC)S(=O)(=O)CCC(F)(F)F (centres unmarked) [present compound (30), methyl 5-ethyl-2-(3,3,3-trifluoropropylsulfonyl)-7-octynoate]	–	≥ 90	≥ 70	100	–
C#CCCCCC(C)(C(=O)OC)S(=O)(=O)CCC(F)(F)F (centres unmarked) [present compound (6), methyl 2-methyl-2-(3,3,3-trifluoropropylsulfonyl)-7-octyonate]	–	–	–	–	100
CCC(=CCC(C(=O)OC)S(=O)(=O)CCC(F)(F)F)C(F)(F)F (centres unmarked) [present compound (36), methyl 5-trifluoromethyl-2-(3,3,3-trifluoropropylsulfonyl)-4-heptenoate]	–	≥ 90	–	–	–
C#CCCCCCC(C(=O)OC)S(=O)(=O)CCC(F)(F)F (centres unmarked) [present compound (14), methyl 2-(3,3,3-trifluoropropylsulfonyl)-8-nonynoate]	–	≥ 90	–	–	–
C#CCCC(F)(C(=O)OC)S(=O)(=O)CCC(F)(F)F (centres unmarked) [present compound (9), methyl 2-fluoro-2-(3,3,3-trifluoropropylsulfonyl)-5-hexynoate]	–	–	≥ 70	100	–
C#CCCC(F)(C(N)=O)S(=O)(=O)CCC(F)(F)F (centres unmarked) [present compound (10), 2-fluoro-2-(3,3,3-trifluoropropylsulfonyl)-5-hexynamide]	–	–	≥ 70	100	–
C#CCCCCCC(F)(C(=O)OC)S(=O)(=O)CCC(F)(F)F (centres unmarked) [present compound (15), methyl 2-fluoro-2-(3,3,3-trifluoropropylsulfonyl)-8-nonynoate]	–	≥ 90	–	–	–
